From ChEMBL document CHEMBL1201862, “PubChem BioAssay data set” (2004)
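Results reflect a 48-hour exposure of cells in 96-well plates to compound at five concentrations. Here, GI50 denotes the concentration required for 50% inhibition of growth.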 The source made the active and inactive calls. Rule as the data show it: active = GI50 up to about 1.1 µM and inactive = higher.

Experiments:
Assay in all cases: NCI anticancer screen, dose series, 48 h
KM12 = system: KM12
TK-10 = system: TK-10
SR = system: SR
DU-145 = system: DU-145
ACHN = system: ACHN
HT-29 = system: HT-29
RXF 393 = system: RXF 393
SF-268 = system: SF-268
OVCAR-5 = system: OVCAR-5
MDA-MB-231 = system: MDA-MB-231
EKVX = system: EKVX
A498 = system: A498
CAKI-1 = system: CAKI-1
MDA-MB-435 = system: MDA-MB-435
A549 = system: A549
SF-295 = system: SF-295
CCRF-CEM = system: CCRF-CEM
OVCAR-3 = system: OVCAR-3
SK-MEL-5 = system: SK-MEL-5
NCI-H522 = system: NCI-H522

| Compound | GI50 (KM12) | GI50 (TK-10) | GI50 (SR) | GI50 (DU-145) | GI50 (ACHN) | GI50 (HT-29) | GI50 (RXF 393) | GI50 (SF-268) | GI50 (OVCAR-5) | GI50 (MDA-MB-231) | GI50 (EKVX) | GI50 (A498) | GI50 (CAKI-1) | GI50 (MDA-MB-435) | GI50 (A549) | GI50 (SF-295) | GI50 (CCRF-CEM) | GI50 (OVCAR-3) | GI50 (SK-MEL-5) | GI50 (NCI-H522) |
| --- | --- | --- | --- | --- | --- | --- | --- | --- | --- | --- | --- | --- | --- | --- | --- | --- | --- | --- | --- | --- |
| CC(N/N=C(\S)N1CCCC1)c1cccnn1 (stereo not given) | 0.719 µM (active) | 0.54 µM (active) | 0.378 µM (active) | 0.789 µM (active) | 0.391 µM (active) | 0.426 µM (active) | 0.315 µM (active) | 0.259 µM (active) | 0.318 µM (active) | 1.03 µM (active) | 0.294 µM (active) | 4.91 µM (inactive) | 0.713 µM (active) | 1.13 µM (inactive) | 0.342 µM (active) | 0.451 µM (active) | 0.274 µM (active) | 0.29 µM (active) | 0.279 µM (active) | 2.31 µM (inactive) |
| O=C1OC(C(O)C(O)C(O)CO)C(O)C1O (stereo not given) | > 100 µM (inactive) | > 100 µM (inactive) | > 100 µM (inactive) | > 100 µM (inactive) | > 100 µM (inactive) | > 100 µM (inactive) | > 100 µM (inactive) | > 100 µM (inactive) | > 100 µM (inactive) | > 100 µM (inactive) | > 100 µM (inactive) | > 100 µM (inactive) | > 100 µM (inactive) | > 100 µM (inactive) | > 100 µM (inactive) | > 100 µM (inactive) | > 100 µM (inactive) | > 100 µM (inactive) | > 100 µM (inactive) | > 100 µM (inactive) |
| Cc1ccc(/C(O)=C/c2nc3ccccc3oc2=O)cc1 | > 100 µM (inactive) | > 100 µM (inactive) | 26.9 µM (inactive) | > 100 µM (inactive) | 58.1 µM (inactive) | > 100 µM (inactive) | > 100 µM (inactive) | > 100 µM (inactive) | > 100 µM (inactive) | > 100 µM (inactive) | > 100 µM (inactive) | 78.3 µM (inactive) | > 100 µM (inactive) | 25.6 µM (inactive) | > 100 µM (inactive) | 59.6 µM (inactive) | 12.8 µM (inactive) | 51.2 µM (inactive) | 19.2 µM (inactive) | 16.7 µM (inactive) |
| CCOC1SC(SC)=NN1C(=O)C(OC(C)=O)C(OC(C)=O)C(OC(C)=O)C(OC(C)=O)C(=O)N1N=C(SC)SC1OCC (stereo not given) | > 100 µM (inactive) | > 100 µM (inactive) | > 100 µM (inactive) | > 100 µM (inactive) | > 100 µM (inactive) | > 100 µM (inactive) | 75.2 µM (inactive) | > 100 µM (inactive) | > 100 µM (inactive) | > 100 µM (inactive) | > 100 µM (inactive) | > 100 µM (inactive) | > 100 µM (inactive) | > 100 µM (inactive) | > 100 µM (inactive) | > 100 µM (inactive) | > 100 µM (inactive) | > 100 µM (inactive) | > 100 µM (inactive) | > 100 µM (inactive) |
| O=C(Cc1ccc(OCc2cccc(Cl)c2)cc1)NO | 27.6 µM (inactive) | 34.8 µM (inactive) | 5.81 µM (inactive) | 21.5 µM (inactive) | 25.2 µM (inactive) | 27 µM (inactive) | 26 µM (inactive) | 20 µM (inactive) | 30.3 µM (inactive) | 41.8 µM (inactive) | 25.3 µM (inactive) | 2.7 µM (inactive) | 19.9 µM (inactive) | 41.8 µM (inactive) | 27.5 µM (inactive) | 32 µM (inactive) | 6.76 µM (inactive) | 22.2 µM (inactive) | 33.3 µM (inactive) | 15.8 µM (inactive) |
| COC(=O)C1(Cc2ccccc2)Cc2cc3c(cc2C1O)CCC3 (stereo not given) | 21.3 µM (inactive) | 25.9 µM (inactive) | 26.7 µM (inactive) | 15.2 µM (inactive) | 17.1 µM (inactive) | 13.8 µM (inactive) | 15 µM (inactive) | 30.3 µM (inactive) | 13.6 µM (inactive) | 18.3 µM (inactive) | 22.9 µM (inactive) | 19.7 µM (inactive) | 11.6 µM (inactive) | 16.3 µM (inactive) | 24 µM (inactive) | 27 µM (inactive) | 16.1 µM (inactive) | 16.4 µM (inactive) | 15.9 µM (inactive) | 17.4 µM (inactive) |
| O=C1c2ccccc2C(=O)c2c1ccc1nc3c(nc21)-c1c2ccccc2cc2cccc-3c12 | 8.36 µM (inactive) | 52.4 µM (inactive) | 5.27 µM (inactive) | 29.2 µM (inactive) | 16.1 µM (inactive) | 27 µM (inactive) | 39.4 µM (inactive) | 29.4 µM (inactive) | > 100 µM (inactive) | 74.1 µM (inactive) | 18.3 µM (inactive) | > 50.9 µM (inactive) | 23.4 µM (inactive) | 18.6 µM (inactive) | 45.6 µM (inactive) | 21.4 µM (inactive) | 5.33 µM (inactive) | 43.8 µM (inactive) | 46.7 µM (inactive) | 27.2 µM (inactive) |
| CCC/C(Cl)=N\OC(=O)Nc1ccc(Br)cc1 | 10.8 µM (inactive) | 14.2 µM (inactive) | 5.68 µM (inactive) | 13.8 µM (inactive) | 5.05 µM (inactive) | 17.7 µM (inactive) | 16.6 µM (inactive) | 17.7 µM (inactive) | 13.9 µM (inactive) | 16.9 µM (inactive) | 14.6 µM (inactive) | 16.9 µM (inactive) | 4.36 µM (inactive) | 14.5 µM (inactive) | 18.4 µM (inactive) | 14.9 µM (inactive) | 1.78 µM (inactive) | 6.22 µM (inactive) | 14.6 µM (inactive) | 1.75 µM (inactive) |
| CC1=NN(c2ccccc2)C(=O)C1/N=N/c1ccc([As](=O)(O)O)c(O)c1 (stereo not given) | > 100 µM (inactive) | > 100 µM (inactive) | > 100 µM (inactive) | > 100 µM (inactive) | > 100 µM (inactive) | > 100 µM (inactive) | > 100 µM (inactive) | > 100 µM (inactive) | > 100 µM (inactive) | > 100 µM (inactive) | > 100 µM (inactive) | > 100 µM (inactive) | > 100 µM (inactive) | > 100 µM (inactive) | > 100 µM (inactive) | > 100 µM (inactive) | 25.4 µM (inactive) | > 100 µM (inactive) | > 100 µM (inactive) | > 100 µM (inactive) |
| O=C1C(C(c2ccc([N+](=O)[O-])cc2)N2CCOCC2)=C(O)C(c2ccccc2)N1c1ccccc1 (stereo not given) | > 10 µM (inactive) | > 10 µM (inactive) | > 10 µM (inactive) | > 10 µM (inactive) | > 10 µM (inactive) | > 10 µM (inactive) | > 10 µM (inactive) | > 10 µM (inactive) | > 10 µM (inactive) | > 10 µM (inactive) | > 10 µM (inactive) | > 10 µM (inactive) | > 10 µM (inactive) | > 10 µM (inactive) | > 10 µM (inactive) | > 10 µM (inactive) | > 10 µM (inactive) | > 10 µM (inactive) | > 10 µM (inactive) | > 10 µM (inactive) |
